Results reported in patent US20100204224A1, “AZACYCLIC COMPOUNDS AS INHIBITORS OF SENSORY NEURONE SPECIFIC SODIUM CHANNELS” (priority 2005, published 2010).
Structures can show the parent of a compound that is named as a salt. Where two headings read alike, the source gives them in different places.

Target: T1, human Nav1.8 (hNav1.8) ion channel (Homo sapiens, UniProt Q9Y5Y9)
T1 construct: expressed in transfected cells
Experiment: Inhibition of human Nav1.8 stably expressed in SH-SY-5Y cells (membrane potential dye fluorescence assay)
Assay type: cell-based
Conditions: FLIPR membrane potential dye, 10 μM pyrethroid, 250 nM TTX, test concentration range 100 μM-0.05 μM

[1] = SH-SY-5Y hNav1.8 cells, read-out: hNav1.8 IC50
[2] = hNav1.8 IC50, SH-SY-5Y hNav1.8 cells

T1 sequence (Q9Y5Y9 whole entry): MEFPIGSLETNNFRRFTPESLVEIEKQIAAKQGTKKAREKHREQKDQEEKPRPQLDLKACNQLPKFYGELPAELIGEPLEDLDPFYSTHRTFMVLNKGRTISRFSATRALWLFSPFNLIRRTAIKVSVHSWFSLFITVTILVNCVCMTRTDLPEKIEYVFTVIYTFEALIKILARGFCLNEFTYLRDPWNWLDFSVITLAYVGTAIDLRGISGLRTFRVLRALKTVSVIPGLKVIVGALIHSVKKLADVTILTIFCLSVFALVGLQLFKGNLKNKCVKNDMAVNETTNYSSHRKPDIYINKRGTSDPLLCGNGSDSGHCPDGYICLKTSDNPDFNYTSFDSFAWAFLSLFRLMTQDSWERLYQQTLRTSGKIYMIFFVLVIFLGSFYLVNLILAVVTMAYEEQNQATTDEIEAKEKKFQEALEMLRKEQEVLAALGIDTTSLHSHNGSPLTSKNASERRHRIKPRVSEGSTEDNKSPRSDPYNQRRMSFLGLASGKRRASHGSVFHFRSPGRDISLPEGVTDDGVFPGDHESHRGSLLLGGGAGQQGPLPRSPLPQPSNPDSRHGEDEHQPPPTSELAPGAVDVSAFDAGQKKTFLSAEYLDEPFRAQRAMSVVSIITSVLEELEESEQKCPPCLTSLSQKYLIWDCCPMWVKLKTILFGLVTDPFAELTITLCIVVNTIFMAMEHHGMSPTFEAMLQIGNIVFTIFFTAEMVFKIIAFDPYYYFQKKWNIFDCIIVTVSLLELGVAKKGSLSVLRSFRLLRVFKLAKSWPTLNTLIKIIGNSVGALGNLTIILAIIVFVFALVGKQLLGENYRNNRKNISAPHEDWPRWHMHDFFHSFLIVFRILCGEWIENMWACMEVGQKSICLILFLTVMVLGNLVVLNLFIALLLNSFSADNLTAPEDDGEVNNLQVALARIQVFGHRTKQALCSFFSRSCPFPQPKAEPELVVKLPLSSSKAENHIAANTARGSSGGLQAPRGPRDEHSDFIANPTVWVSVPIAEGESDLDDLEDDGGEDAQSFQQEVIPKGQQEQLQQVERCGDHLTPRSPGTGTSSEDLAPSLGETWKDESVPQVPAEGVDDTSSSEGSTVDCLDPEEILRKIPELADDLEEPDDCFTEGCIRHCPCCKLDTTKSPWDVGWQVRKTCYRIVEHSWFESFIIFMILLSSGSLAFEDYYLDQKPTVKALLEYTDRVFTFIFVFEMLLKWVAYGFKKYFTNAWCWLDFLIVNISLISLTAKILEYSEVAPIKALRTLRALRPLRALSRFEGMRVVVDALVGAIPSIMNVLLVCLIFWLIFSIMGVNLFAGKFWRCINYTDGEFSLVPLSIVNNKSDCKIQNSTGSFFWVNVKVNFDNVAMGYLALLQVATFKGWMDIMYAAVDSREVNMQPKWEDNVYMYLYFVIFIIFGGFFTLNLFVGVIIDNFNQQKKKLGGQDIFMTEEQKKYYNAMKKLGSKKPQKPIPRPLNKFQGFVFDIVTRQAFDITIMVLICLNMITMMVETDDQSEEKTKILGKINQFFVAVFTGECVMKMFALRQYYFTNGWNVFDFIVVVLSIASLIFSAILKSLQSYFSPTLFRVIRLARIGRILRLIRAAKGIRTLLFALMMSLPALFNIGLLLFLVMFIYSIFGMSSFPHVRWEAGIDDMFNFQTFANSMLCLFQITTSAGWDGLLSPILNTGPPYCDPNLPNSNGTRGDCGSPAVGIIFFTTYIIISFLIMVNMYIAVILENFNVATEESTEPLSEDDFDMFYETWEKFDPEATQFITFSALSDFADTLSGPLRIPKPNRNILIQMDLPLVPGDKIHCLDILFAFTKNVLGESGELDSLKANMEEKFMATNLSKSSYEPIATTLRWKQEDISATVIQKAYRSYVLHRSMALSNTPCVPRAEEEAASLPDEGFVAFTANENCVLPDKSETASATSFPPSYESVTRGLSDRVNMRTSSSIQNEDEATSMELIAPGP

| Compound | IC50 [1] | IC50 [2] |
| --- | --- | --- |
| Cc1ccccc1C(C)N1CC2CC1CN2C(=O)Nc1ccc(C(=O)c2ccccc2)cc1 (centres unmarked) [Example 66, 5-(1-o-Tolyl-ethyl)-2,5-diaza-bicyclo[2.2.1]heptane-2-carboxylic acid (4-benzoyl-phenyl)-amide] | 720 nM |  |
| C=CCOC(=O)NCCOc1ccc(NC(=O)N2CC3CC2CN3C(C)c2ccccc2C)cc1 (centres unmarked) [Example 28, [2-(4-{[5-(1-o-Tolyl-ethyl)-2,5-diaza-bicyclo[2.2.1]heptane-2-carbonyl]-amino}-phenoxy)-ethyl]-carbamic acid allyl ester] | 4890 nM |  |
| CC(c1ccc(F)cc1Cl)N1CC2CC1CN2C(=O)Cc1ccc(Oc2ccc(F)cc2)cc1 (single isomer, unassigned) [Example 161, 1-{5-[1-(2-Chloro-4-fluoro-phenyl)-ethyl]-2,5-diaza-bicyclo[2.2.1]hept-2-yl}-2-[4-(4-fluoro-phenoxy)-phenyl]-ethanone] |  | 4750 nM |
| CC(c1c(F)cccc1Cl)N1CC2CC1CN2C(=O)c1ccc(Oc2ccc(F)cc2)cc1 (centres unmarked) [Example 167, {5-[1-(2-Chloro-6-fluoro-phenyl)-ethyl]-2,5-diaza-bicyclo[2.2.1]hept-2-yl}-[4-(4-fluoro-phenoxy)-phenyl]-methanone] | 2220 nM |  |
| Cc1ccccc1CC(C)N1CC2CC1CN2C(=O)Nc1ccc(C(F)(F)F)cc1 (centres unmarked) [Example 59, 5-(1-Methyl-2-o-tolyl-ethyl)-2,5-diaza-bicyclo[2.2.1]heptane-2-carboxylic acid (4-trifluoromethyl-phenyl)-amide] | 750 nM |  |
| Cc1ccccc1C(C)N1CC2CC1CN2C(=O)Nc1ccc(Cc2ccccc2)cc1 (centres unmarked) [Example 34, 5-(1-o-Tolyl-ethyl)-2,5-diaza-bicyclo[2.2.1]heptane-2-carboxylic acid (4-benzyl-phenyl)-amide] | 640 nM |  |
| Cc1ccccc1C(C)N1CC2CC1CN2C(=O)Nc1ccc(OCc2ccccc2)cc1 (centres unmarked) [Example 31, 5-(1-o-Tolyl-ethyl)-2,5-diaza-bicyclo[2.2.1]heptane-2-carboxylic acid (4-benzyloxy-phenyl)-amide] | 600 nM |  |
| CC(c1c(F)cccc1Cl)N1CC2CC1CN2C(=O)Cc1ccc(Oc2ccc(F)cc2)cc1 (single isomer, unassigned) [Example 166, 1-{5-[1-(2-Chloro-6-fluoro-phenyl)-ethyl]-2,5-diaza-bicyclo[2.2.1]hept-2-yl}-2-[4-(4-fluoro-phenoxy)-phenyl]-ethanone] |  | 3910 nM |
| O=C(Nc1ccc(Oc2ccc(F)cc2)cc1)N1CC2CC1CN2C1Cc2ccccc2C1 (centres unmarked) [Example 106, 5-Indan-2-yl-2,5-diaza-bicyclo[2.2.1]heptane-2-carboxylic acid [4-(4-fluoro-phenoxy)-phenyl]-amide] | 170 nM |  |
| CCOCCOCCOc1ccc(NC(=O)N2CC3CC2CN3C(C)c2ccccc2C)cc1 (centres unmarked) [Example 16, 5-(1-o-Tolyl-ethyl)-2,5-diaza-bicyclo[2.2.1]heptane-2-carboxylic acid {4-[2-(2-ethoxy-ethoxy)-ethoxy]-phenyl}-amide] | 25600 nM |  |
| Cc1ccccc1C(C)N1CC2CC1CN2C(=O)Nc1ccc(-c2ccccc2)cc1 (centres unmarked) [Example 39, 5-(1-o-Tolyl-ethyl)-2,5-diaza-bicyclo[2.2.1]heptane-2-carboxylic acid biphenyl-4-ylamide] | 1060 nM |  |
| Cc1ccccc1C(C)N1CC2CC1CN2C(=O)Nc1ccc(OC2CCCC2)cc1 (centres unmarked) [Example 24, 5-(1-o-Tolyl-ethyl)-2,5-diaza-bicyclo[2.2.1]heptane-2-carboxylic acid (4-cyclopentyloxy-phenyl)-amide] | 890 nM |  |
| CC(c1ccc(F)cc1)N1CC2CC1CN2C(=O)Nc1cccc(Oc2ccccc2)c1 (centres unmarked) [Example 49, 5-[1-(4-Fluoro-phenyl)-ethyl]-2,5-diaza-bicyclo[2.2.1]heptane-2-carboxylic acid (3-phenoxy-phenyl)-amide] | 1080 nM |  |
| Cc1ccccc1C(C)N1CC2CC1CN2C(=O)Nc1ccc(C(F)(F)F)cc1 (centres unmarked) [Example 6, 5-(1-o-Tolyl-ethyl)-2,5-diaza-bicyclo[2.2.1]heptane-2-carboxylic acid (4-trifluoromethyl-phenyl)-amide] | 990 nM |  |
| Cc1ccsc1CN1CC2CC1CN2C(=O)Nc1ccc(Oc2ccccc2)cc1 (centres unmarked) [Example 1, 5-(3-Methyl-thiophen-2-ylmethyl)-2,5-diaza-bicyclo[2.2.1]heptane-2-carboxylic acid (4-phenoxy-phenyl)-amide] | 410 nM |  |
| CC(c1ccccc1Cl)N1CC2CC1CN2C(=O)Nc1ccc(Oc2ccccc2)cc1 (single isomer, unassigned) [Example 11, 5-[1-(2-Chloro-phenyl)-ethyl]-2,5-diaza-bicyclo[2.2.1]heptane-2-carboxylic acid (4-phenoxy-phenyl)-amide] | 1800 nM |  |

| Compound | IC50 [1] | IC50 [2] |
| --- | --- | --- |
| O=C(Nc1ccc(C(F)(F)F)cc1)N1CC2CC1CN2C1CCc2ccccc2C1 (centres unmarked) [Example 77, 5-(1,2,3,4-Tetrahydro-naphthalen-2-yl)-2,5-diaza-bicyclo[2.2.1]heptane-2-carboxylic acid (4-trifluoromethyl-phenyl)-amide] | 590 nM |  |
| CCOCCOc1ccc(NC(=O)N2CC3CC2CN3C(C)c2ccccc2C)cc1 (centres unmarked) [Example 17, 5-(1-o-Tolyl-ethyl)-2,5-diaza-bicyclo[2.2.1]heptane-2-carboxylic acid [4-(2-ethoxy-ethoxy)-phenyl]-amide] | 28000 nM |  |
| COCCOc1ccc(NC(=O)N2CC3CC2CN3C(C)c2ccccc2C)cc1 (centres unmarked) [Example 19, 5-(1-o-Tolyl-ethyl)-2,5-diaza-bicyclo[2.2.1]heptane-2-carboxylic acid [4-(2-methoxy-ethoxy)-phenyl]-amide] | ≥ 30000 nM |  |
| CC(c1ccc(F)cc1)N1CC2CC1CN2C(=O)Nc1ccc(C(F)(F)F)cc1 (centres unmarked) [Example 53, 5-[1-(4-Fluoro-phenyl)-ethyl]-2,5-diaza-bicyclo[2.2.1]heptane-2-carboxylic acid (4-trifluoromethyl-phenyl)-amide] | 2500 nM |  |
| CC(c1ccc(F)cc1)N1CC2CC1CN2C(=O)Nc1ccc(C(F)(F)F)cc1 (centres unmarked) [Example 46, 5-[1-(4-Fluoro-phenyl)-ethyl]-2,5-diaza-bicyclo[2.2.1]heptane-2-carboxylic acid (4-trifluoromethyl-phenyl)-amide] | 1310 nM |  |
| Cc1cc(F)ccc1C(C)N1CC2CC1CN2C(=O)Nc1ccc(Oc2ccc(F)cc2)cc1 (centres unmarked) [Example 75, 5-[1-(4-Fluoro-2-methyl-phenyl)-ethyl]-2,5-diaza-bicyclo[2.2.1]heptane-2-carboxylic acid [4-(4-fluoro-phenoxy)-phenyl]-amide] | 570 nM |  |
| CC(c1ccccc1C(F)(F)F)N1CC2CC1CN2C(=O)Nc1ccc(C(F)(F)F)cc1 (single isomer, unassigned) [Example 56, 5-[1-(2-Trifluoromethyl-phenyl)-ethyl]-2,5-diaza-bicyclo[2.2.1]heptane-2-carboxylic acid (4-trifluoromethyl-phenyl)-amide] | 7910 nM |  |
| O=C(Nc1ccc(Oc2ccc(F)cc2)cc1)N1CCC2(CCN(C3Cc4ccccc4C3)C2)C1 (centres unmarked) [Example 104, 7-Indan-2-yl-2,7-diaza-spiro[4.4]nonane-2-carboxylic acid [4-(4-fluoro-phenoxy)-phenyl]-amide] | 430 nM |  |
| Cc1ccccc1C(C)N1CC2CC1CN2C(=O)NC(C)c1ccc(F)cc1 (centres unmarked) [Example 69, 5-(1-o-Tolyl-ethyl)-2,5-diaza-bicyclo[2.2.1]heptane-2-carboxylic acid [1-(4-fluoro-phenyl)-ethyl]-amide] | 17100 nM |  |
| CC(c1ccccc1Cl)N1CC2CC1CN2C(=O)c1ccc(Oc2ccc(F)cc2)c(F)c1 (centres unmarked) [Example 179, {5-[1-(2-Chloro-phenyl)-ethyl]-2,5-diaza-bicyclo[2.2.1]hept-2-yl}-[3-fluoro-4-(4-fluoro-phenoxy)-phenyl]-methanone methanesulfonate salt] | 1340 nM |  |
| O=C(Cc1ccc(C(F)(F)F)cc1)N1CC2CC1CN2C1CCc2ccccc2C1 (centres unmarked) [Example 147, 1-[5-(1,2,3,4-Tetrahydro-naphthalen-2-yl)-2,5-diaza-bicyclo[2.2.1]hept-2-yl]-2-(4-trifluoromethyl-phenyl)-ethanone] |  | 3100 nM |
| CC(c1ccccc1C(F)(F)F)N1CC2CC1CN2C(=O)Nc1ccc(C(F)(F)F)cc1 (single isomer, unassigned) [Example 54, 5-[1-(2-Trifluoromethyl-phenyl)-ethyl]-2,5-diaza-bicyclo[2.2.1]heptane-2-carboxylic acid (4-trifluoromethyl-phenyl)-amide] | 1750 nM |  |
| CC(c1ccccc1Cl)N1CC2CC1CN2C(=O)Nc1ccc(Oc2ccccc2F)cc1 (centres unmarked) [Example 109, 5-[1-(2-Chloro-phenyl)-ethyl]-2,5-diaza-bicyclo[2.2.1]heptane-2-carboxylic acid [4-(2-fluoro-phenoxy)-phenyl]-amide] | 680 nM |  |
| O=C(Nc1ccc(Oc2ccccc2F)cc1)N1CC2CC1CN2C1Cc2ccccc2C1 (centres unmarked) [Example 113, 5-Indan-2-yl-2,5-diaza-bicyclo[2.2.1]heptane-2-carboxylic acid [4-(2-fluoro-phenoxy)-phenyl]-amide] | 540 nM |  |
| O=C(c1ccc(C(F)(F)F)cc1)N1CC2CC1CN2C1CCc2ccc(F)cc2C1 (centres unmarked) [Example 138, [5-(7-Fluoro-1,2,3,4-tetrahydro-naphthalen-2-yl)-2,5-diaza-bicyclo[2.2.1]hept-2-yl]-(4-trifluoromethyl-phenyl)-methanone] | 13300 nM |  |
| CC(c1ccc(C#N)cc1)N1CC2CC1CN2C(=O)Nc1ccc(Oc2ccc(F)cc2)cc1 (centres unmarked) [Example 90, 5-[1-(4-Cyano-phenyl)-ethyl]-2,5-diaza-bicyclo[2.2.1]heptane-2-carboxylic acid [4-(4-fluoro-phenoxy)-phenyl]-amide] | 1400 nM |  |
